Assay results reported in patent US8592403B2, “Diazepine and diazocane compounds as MC4 agonists” (Pfizer Limited, priority 2008, dated 2013).
pEC50: −log10 of the molar value.

How the values were obtained:
[1] = target: MC4 receptor (Homo sapiens, UniProt P32245); test: MC4 EC50 functional potency (protocol E of US2005/0176772 / WO 2005/077935); assay type: cell-based
Method: The compounds of formula (I) of the present invention have utility as MCR4 agonists in the treatment of various disease states.
MC5 and MC4 EC50 activity was determined as described by assay protocols D and E, respectively, in US2005/0176772 (pages 28-30).

[2] = In vitro metabolism rate determination, human liver microsome (HLM) assay; assay type: in vitro ADME; details: human, liver microsomes, read-out: HLM: Clint, app
Excerpt: In Vitro Metabolism Rate Determination (Human Liver Microsome (HLM); Rat Liver Microsome (RLM) Assay)
Many drugs are metabolised by the cytochrome P450 mono-oxygenase system. This enzyme is found in high concentrations in the liver and is bound to the endoplasmic reticulum of the hepatocyte. The enzyme system can be obtained in semi-purified state by the preparation of the hepatic microsomal fractions. Determining a compound's in vitro half-life in such a system provides a useful indicator of metabolic stability.
Methodology for In Vitro Rate Determination Using Hepatic & Supermix Microsomes
The method outlined below is for a total incubation volume of 1.5 ml.
1. The following mixture is prepared in a test tube:
2. Defrost microsomes at room temperature and add sufficient microsomes to give a final concentration of 0.5 nmol cytochrome P450/ml of incubation e.g. for a 1.5 ml incubation, the volume of microsomes to be added is:
3. Add sufficient MilliQ water to give a total incubation volume of 1.425 ml.
6. Add substrate to the incubation. The substrate should be at an initial concentration of 1 μM. The volume of substrate required in the remaining 1.162.5 ml incubation is calculated as follows: […]
8. Pre-incubate the tube containing the incubation mix, also positive control and no cofactor tubes in the thermostatically controlled shaking water bath set at 37° C. for approx 5 min.
9. Add NADP to initiate reaction (75 μl to each 1.162.5 ml incubation mix, 12.5 μl to positive control tube and 5 μl to no substrate tube) and take first time point immediately. The PNA positive control, no cofactor control and no substrate tubes are incubated for the total incubation time.
10. Remove 100 μl aliquots up to 9 different sampling points from 0 to 60 min (usually 0, 3, 5, 10, 15, 20, 30, 45 & 60 min) and terminate reaction. Longer incubation times can be used, but, after 120 min the microsomes deteriorate. The reaction may be terminated by addition of organic solvent, acid or base. At the end of the incubation process the no cofactor and no substrate controls in a similar manner i.e. terminate with the same reagent.
11. Analyse samples (including no cofactor and no substrate control) by a specific assay for the substrate to determine the disappearance kinetics.
Data obtained using the procedure described above can be quantified in terms of the substrates in vitro intrinsic clearance (Clint). Providing that the substrate concentration is below Km, the metabolism should be 1st order giving a log-linear plot of substrate disappearance with time.
The gradient of this line is the first order rate constant (k) for the substrate disappearance and is determined by regression analysis. This rate constant can be converted to the half-life according to the following equation.
Alternatively the rate constant can be converted to an intrinsic clearance (Clint) according to the following equation:— Clint(μl/min/mg)=(k/protein concentration in incubation (mg/ml))*1000

[3] = target: T1, CYP3A4 (Homo sapiens, UniProt P08684); test: High density DDI 3 μM cocktail screen in human liver microsomes, midazolam probe; assay type: in vitro ADME; details: human, liver microsomes, probe midazolam, read-out: % inhibition 3A4 @ 3 μM
T1 construct: utilizes human liver microsomes together with isoform-specific clinical drug probes; from tissue; host or cells: human liver microsomes
Method: High Density Drug-Drug Interactions (DDI) 3 μM Cocktail Screen
A drug interaction is a situation in which a substance affects the activity of another drug, i.e. the effects are increased or decreased, or together they produce a new effect that neither produces on its own. Drug interactions may be the result of various processes but a relatively common one is where one drug affects the pharmacokinetics of another by inhibiting the cytochrome P450 that metabolises it. Because of the importance of these phenomena, assessment of the DDI potential for new chemical entities (NCEs) is considered important early on in the drug discovery process.
The DDI cocktail screen in human liver microsomes (HLM) is run in a fully automated fashion and the aim of the screen is to provide a single-point assessment of the DDI potential of new chemical entity (NCE; tested at […]) against the 4 primary cytochrome P450 enzymes, 1A2, 2D6, 2C9 and 3A4.
The substrate cocktail approach for P450 DDI utilizes human liver microsomes together with isoform-specific clinical drug probes and permits the simultaneous measurement of the inhibition of P450 1A2, 2C9, 2D6 & 3A4 activities in a single incubation. This is run in high throughput with simultaneous detection of metabolites by LC-MS/MS. This method has been thoroughly tested and evaluated using standard compounds.
Appearance of the metabolite of each substrate is measured over time in the presence and absence of the NCE (test compound/inhibitor) at a concentration of 3 μM. The compounds are assessed for their inhibitory potential as a percentage value and interpreted using the following scheme.

T1 sequence (P08684 whole entry, canonical isoform): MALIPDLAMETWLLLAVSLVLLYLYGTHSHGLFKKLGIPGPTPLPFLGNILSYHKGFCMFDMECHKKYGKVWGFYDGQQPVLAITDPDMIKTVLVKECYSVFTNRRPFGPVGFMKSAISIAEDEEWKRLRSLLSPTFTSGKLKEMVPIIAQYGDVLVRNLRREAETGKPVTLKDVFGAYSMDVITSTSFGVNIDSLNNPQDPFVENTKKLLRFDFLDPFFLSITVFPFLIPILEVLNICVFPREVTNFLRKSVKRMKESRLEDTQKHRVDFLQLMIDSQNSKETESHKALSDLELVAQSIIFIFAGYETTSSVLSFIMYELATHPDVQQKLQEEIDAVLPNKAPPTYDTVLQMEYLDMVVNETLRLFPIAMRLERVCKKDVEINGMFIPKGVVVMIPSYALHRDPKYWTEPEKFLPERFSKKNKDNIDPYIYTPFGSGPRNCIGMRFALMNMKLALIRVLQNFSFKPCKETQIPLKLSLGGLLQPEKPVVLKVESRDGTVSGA
Sequence of MC4 receptor (P32245 whole entry): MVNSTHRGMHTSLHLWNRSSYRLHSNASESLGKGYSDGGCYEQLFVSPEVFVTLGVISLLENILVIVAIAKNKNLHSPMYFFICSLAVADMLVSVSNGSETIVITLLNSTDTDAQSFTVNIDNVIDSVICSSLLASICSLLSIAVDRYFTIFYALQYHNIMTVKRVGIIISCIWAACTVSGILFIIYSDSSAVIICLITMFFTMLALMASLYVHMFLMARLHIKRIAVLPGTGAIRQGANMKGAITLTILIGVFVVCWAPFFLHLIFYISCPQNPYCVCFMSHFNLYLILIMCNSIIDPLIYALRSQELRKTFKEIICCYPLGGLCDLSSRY

Row | SMILES | pEC50 [1] | microsomal CLint at 1 μM [2] [µL/min/mg] | inhibition at 3 µM [3] [%]
1 | CC(C)C(=O)N1CCN(C(=O)[C@@H]2CN(c3ccc(=O)n(C)n3)C[C@H]2c2ccc(Cl)cn2)CCC[C@H]1c1ccc(Cl)cc1 [Example 37, 6-[(3S,4S)-3-{[5S-(4-chlorophenyl)-4-isobutyryl-1,4-diazocan-1-yl]carbonyl}-4-(5-chloropyridin-2-yl)pyrrolidin-1-yl]-2-methylpyridazin-3(2H)-one] | 8.68 | 13.9 | 42.3
2 | CCC(=O)N1CCN(C(=O)[C@@H]2CN(c3ccc(=O)n(C)n3)C[C@H]2c2ccc(OC)cc2F)CCC[C@H]1c1ccc(Cl)cc1 [Example 28] | 8.47 | 21.5 | 40.8
3 | COC(=O)N1CCN(C(=O)[C@@H]2CN(c3ccc4nncn4n3)C[C@H]2c2ccc(F)cc2F)CCC[C@H]1c1ccc(Cl)cc1 [Example 96] | 9.07 | 31.3 | 76.9
4 | CS(=O)(=O)N1CCN(C(=O)[C@@H]2CN(c3ccc(C#N)nn3)C[C@H]2c2ccc(F)cc2F)CCCC1c1ccc(F)cc1 (mixture of isomers) [Example 77] | 7.26 | 43 | 56.5
5 | CC(C)(C)N1C[C@@H](C(=O)N2CCC[C@@H](c3ccc(Cl)cc3)N(C(=O)C3CC(F)(F)C3)CC2)[C@H](c2ccc(F)cc2F)C1 [Example 61] | 7.60 | 13.9 | 40
6 | CC(=O)N1CCN(C(=O)[C@@H]2CN(C(C)(C)C)C[C@H]2c2ccc(F)cc2F)CCC1c1ccc(F)cc1F (mixture of isomers) [Example 18] | 6.82 | 34 | 24.2
7 | CCN(CC)C(=O)N1CCN(C(=O)[C@@H]2CN(C(C)(C)C)C[C@H]2c2ccc(F)cc2F)CCC[C@H]1c1ccc(Cl)cc1 [Example 44, 4-{[(3S,4R)-1-tert-butyl-4-(2,4-difluorophenyl)pyrrolidin-3-yl]carbonyl}-8S-(4-chlorophenyl)-N,N-diethyl-1,4-diazocane-1-carboxamide] | 8.25 | 173 | 54.5
8 | COC(=O)N1CCN(C(=O)[C@@H]2CN(c3ccc(=O)n(C)n3)C[C@H]2c2ccc(Cl)cn2)CCC[C@H]1c1ccc(Cl)cc1 [Example 47, methyl 8S-(4-chlorophenyl)-4-{[(3S,4S)-4-(5-chloropyridin-2-yl)-1-(1-methyl-6-oxo-1,6-dihydropyridazin-3-yl)pyrrolidin-3-yl]carbonyl}-1,4-diazocane-1-carboxylate] | 8.29 | 20.6 | 54.2
9 | COc1ccc([C@@H]2CN(c3ccc(C#N)nn3)C[C@H]2C(=O)N2CCC[C@@H](c3ccc(Cl)cc3)N(C(=O)C3CC3)CC2)c(F)c1 [Example 23] | 8.37 | 29.1 | 56.2
